These results are taken from patent US6680178B2, “Profiling of protease specificity using combinatorial fluorogenic substrate libraries” (The Regents of the University of California, priority 2000, dated 2004).

Broadly, the Km is the substrate concentration at which the rate is half of its maximum. By kcat is commonly meant the number of substrate molecules converted per active site and unit of time at saturation.

Non-standard residues stand in square brackets, D forms with d. Residues, ends and D or L forms follow the SMILES beside them. *: point of attachment. ACC = NC(=O)Cc1cc(=O)oc2cc(N*)ccc12; AMC = Cc1cc(=O)oc2cc(N*)ccc12; Nle = CCCC[C@H](N)C(=O)O; CH2Cl = ClC*

Series [1] addresses T1, thrombin (Homo sapiens, UniProt P00734).
T1 construct: Human thrombin, plasmin, and factor Xa were used as received; purchased Haematologic Technologies Inc. (Essex Jct., Vt.)
As to the kind of experiment: Single substrate kinetic assay with thrombin (ACC vs AMC leaving group). It is filed as biochemical. The conditions noted are these: thrombin 5-20 nM. Here is the method: (§1) Thrombin concentration ranged from 5-20 nM. The final concentration of substrate ranged from 0.005-2 mM, the concentration of DMSO in the assay was less than 5%. Hydrolysis of AMC and ACC substrates was monitored fluorometrically with an excitation wavelength of 380 nm and emission wavelength of 460 nm on a Fluoromax-2 spectrofluorometer. Cruzain (10 nM) was incubated with 600 μM of the Ac-Leu-Thr-Phe-Lys-ACC substrate. Aliquots were removed at various time points and applied to a C-18 reverse-phase HPLC column with a 10-40% gradient of 95:4.9:0.1 Acetonitrile:H2O:TFA. MALDI (PE Biosystems Voyager) mass spectrometry data was collected on the HPLC fractions.

Series [2] has as its target T2, βII Tryptase (Homo sapiens, UniProt Q15661, N132K).
T2 construct: Secreted mature βI and βII tryptases were purified to homogeneity; made in house; host or cells: Pichia pastoris GS115
As to the kind of experiment: Single substrate kinetic analysis, βII tryptase. The conditions noted are these: for Km: βII Tryptase, 30° C., pH 7.5. It is filed as biochemical. Here is the method:
(§2) Tryptase activity was monitored at 30° C. in assay buffer containing 100 mM HEPES pH 7.5 and 10% glycerol. Substrate stock solutions were prepared in DMSO. The final concentration of substrate ranged from 0.005-2 mM. The concentration of DMSO in the assay was less than 5%. The tryptase concentration was 5 nM. Hydrolysis of ACC substrates was monitored fluorometrically with an excitation wavelength of 380 nm and emission wavelength of 450 nm on a Fluoromax-2 spectrofluorimeter (JY Horiba).

The target in series [3] is T3, βI Tryptase (Homo sapiens, UniProt Q15661).
T3 construct: Secreted mature βI and βII tryptases were purified to homogeneity; made in house; host or cells: Pichia pastoris GS115
T3 sequence (Q15661 31-275): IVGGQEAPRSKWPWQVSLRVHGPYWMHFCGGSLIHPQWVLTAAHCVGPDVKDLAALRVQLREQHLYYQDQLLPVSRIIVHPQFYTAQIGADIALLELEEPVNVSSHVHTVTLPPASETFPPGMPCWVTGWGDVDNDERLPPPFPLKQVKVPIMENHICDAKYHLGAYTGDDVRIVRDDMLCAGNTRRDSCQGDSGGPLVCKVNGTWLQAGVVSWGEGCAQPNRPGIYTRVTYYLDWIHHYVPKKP
Description: Single substrate kinetic analysis, βI tryptase. Conditions: for Km: βI Tryptase, 30° C., pH 7.5. It is filed as biochemical. As to the method: as §2

The nature of series [4]: Fluorescence properties of free and peptidyl-derivatized ACC and AMC. It is filed as physicochemical. Conditions: for λmax, em / λmax, ex: 25° C.; for RFU/nM1 / RFU/nM2: λex = 380 nm; for RFU/nM1: λem = 450 nm; for RFU/nM2: λem = 460 nm. Here is the method:
The fluorescence of free ACC and peptidyl-derivatized ACC was detected on a Spex fluorometer thermostated to 25° C. Excitation wavelengths of 300-410 nm, 5 nm intervals, were used with emission wavelengths of 410-500 nm, 5 nm intervals, to determine optimal excitation and emission parameters.

Series [5] has as its target T3, βI Tryptase. As to the kind of experiment: Irreversible inhibitor kinetic analysis (progress curves), βI tryptase. It is filed as biochemical. Conditions: tryptase 1 nM, 30° C., 100 μM Ac-PRNK-ACC substrate. Here is the method: (§3) Progress curves were obtained for tryptase (1 nM) inactivation by multiple concentrations of Ac-PRNK-cmk (50 nM to 10 μM). Activity was monitored at 30° C. in activity buffer with 100 μM Ac-PRNK-ACC substrate. The rate constant for loss of enzyme activity, kobs, was determined from a non-linear regression of the progress curve data. kobs varied linearly with inhibitor concentration. Therefore, kass, the rate constant for the inactivation of enzyme with inhibitor, was determined by linear regression analysis (Bieth, J. G. Methods in Enzymology 248: 59-84 (1995)). Several P1-basic-preferring proteases were monitored for inhibition by Ac-PRNK-cmk as follows: tryptase bI (50 nM), tryptase bII (50 nM), factor Xa (50 nM), tPA (50 nM), uPA (50 nM), thrombin (1 nM), and plasmin (5 nM) were incubated for 5 minutes with 0 μM, 10 μM, 100 μM Ac-PRNK-cmk. After incubation, residual activity was monitored as follows: Ac-PRNK-ACC was added to a final concentration of 5 μM to the samples containing tryptase βI and βII; Ac-GTAR-ACC (5 μM) was added to the factor Xa and tPA samples; Ac-QFAR-ACC (5 μM) was added to the uPA samples; Ac-nTPR-ACC (5 μM) was added to the thrombin samples; and Ac-KQWK-ACC (5 μM) was added to plasmin samples.
(§4) Progress curves were obtained for tryptase (1 nM) inactivation by multiple concentrations of Ac-PRNK-cmk (50 nM to 10 μM). […]

Another series relates to Factor Xa. As to the kind of experiment: Protease inhibition by Ac-PRNK-cmk, residual activity. It is filed as biochemical, human. Conditions: 100 μM Ac-PRNK-cmk, 5 minutes incubation, enzyme 50 nM. Here is the method: as §3, §4
In series [6] the target is T2, βII Tryptase. As to the kind of experiment: Irreversible inhibitor kinetic analysis (progress curves), βII tryptase. It is filed as biochemical. The conditions noted are these: tryptase 1 nM, 30° C., 100 μM Ac-PRNK-ACC substrate. As to the method:
as §3, §4

For a further series, the target named is T4, tPA (Homo sapiens, UniProt P00750).
T4 construct: purchased American Diagnostica (Greenwich, Conn.)
T4 sequence (P00750 36-562): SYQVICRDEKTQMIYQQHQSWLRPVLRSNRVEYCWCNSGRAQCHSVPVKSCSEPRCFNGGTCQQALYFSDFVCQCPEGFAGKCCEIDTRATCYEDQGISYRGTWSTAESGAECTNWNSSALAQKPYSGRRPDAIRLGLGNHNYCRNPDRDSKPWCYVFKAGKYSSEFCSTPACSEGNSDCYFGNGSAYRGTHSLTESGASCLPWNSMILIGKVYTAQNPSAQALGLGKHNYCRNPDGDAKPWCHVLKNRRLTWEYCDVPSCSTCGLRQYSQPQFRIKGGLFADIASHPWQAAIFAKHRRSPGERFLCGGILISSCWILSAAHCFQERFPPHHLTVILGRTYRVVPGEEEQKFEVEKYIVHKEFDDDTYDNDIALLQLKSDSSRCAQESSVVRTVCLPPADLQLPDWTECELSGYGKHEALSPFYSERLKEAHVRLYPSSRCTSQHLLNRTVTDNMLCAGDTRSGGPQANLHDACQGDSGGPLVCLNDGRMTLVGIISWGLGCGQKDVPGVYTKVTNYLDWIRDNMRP
As to the kind of experiment: Protease inhibition by Ac-PRNK-cmk, residual activity. It is filed as biochemical. Conditions: 100 μM Ac-PRNK-cmk, 5 minutes incubation, enzyme 50 nM. Here is the method: as §3
as §3, with “(Bieth” for “(Bieth, J. G. Methods in Enzymology 248: 59-84”, “bIl” for “bII”

The next series addresses T5, Plasmin (Homo sapiens, UniProt P00747).
T5 construct: Human thrombin, plasmin, and factor Xa were used as received; purchased Haematologic Technologies Inc. (Essex Jct., Vt.)
The description is as above. It is filed as biochemical. Conditions: 100 μM Ac-PRNK-cmk, 5 minutes incubation, enzyme 5 nM. As to the method:
as §3
as §3, with “(Bieth” for “(Bieth, J. G. Methods in Enzymology 248: 59-84”, “bIl” for “bII”

A further series has as its target T6, Tryptase βII (Homo sapiens, UniProt Q15661, N132K).
T6 construct: Secreted mature βI and βII tryptases were purified to homogeneity; made in house; host or cells: Pichia pastoris GS115
The series is described as above. Conditions: 10 μM Ac-PRNK-cmk, 5 minutes incubation, enzyme 50 nM. It is filed as biochemical. As to the method:
as §3
as §3, with “(Bieth” for “(Bieth, J. G. Methods in Enzymology 248: 59-84”, “bIl” for “bII”

For the next series, the target named is T7, Tryptase βI (Homo sapiens, UniProt Q15661).
T7 construct: Secreted mature βI and βII tryptases were purified to homogeneity; made in house; host or cells: Pichia pastoris GS115
T7 sequence (Q15661 31-275): as the sequence (Q15661 31-275) above
The description is as above. Conditions: 10 μM Ac-PRNK-cmk, 5 minutes incubation, enzyme 50 nM. It is filed as biochemical. Here is the method:
as §3
as §3, with “(Bieth” for “(Bieth, J. G. Methods in Enzymology 248: 59-84”, “bIl” for “bII”

In a further series the target is T8, uPA (Homo sapiens, UniProt P00749).
T8 construct: purchased American Diagnostica (Greenwich, Conn.) or Calbiochem (San Diego, Calif.)
The description is as above. It is filed as biochemical. The conditions noted are these: 100 μM Ac-PRNK-cmk, 5 minutes incubation, enzyme 50 nM. As to the method: as §3
as §3, with “(Bieth” for “(Bieth, J. G. Methods in Enzymology 248: 59-84”, “bIl” for “bII”

Series [7] concerns the target T1, thrombin. Described as above. It is filed as biochemical. Conditions: 100 μM Ac-PRNK-cmk, 5 minutes incubation, enzyme 1 nM. As to the method:
as §3
as §3, with “(Bieth” for “(Bieth, J. G. Methods in Enzymology 248: 59-84”, “bIl” for “bII”

A further series concerns the target T9, cruzain (Trypanosoma cruzi, UniProt P25779).
T9 construct: made in house
Description: Incubation of single substrate with cruzain and analysis of cleavage products (HPLC, MALDI). It is filed as biochemical. The conditions noted are these: cruzain 10 nM, 600 μM substrate; data not shown. As to the method: as §1

Setting [8] is: range stated over tryptase βI and βII.

T2 sequence (Q15661 31-275 N132K): as the sequence (Q15661 31-275) above, with N102K counted along it
T6 sequence (Q15661 31-275 N132K): as the sequence (Q15661 31-275) above, with N102K counted along it
T5 sequence (P00747 581-810 limits assumed): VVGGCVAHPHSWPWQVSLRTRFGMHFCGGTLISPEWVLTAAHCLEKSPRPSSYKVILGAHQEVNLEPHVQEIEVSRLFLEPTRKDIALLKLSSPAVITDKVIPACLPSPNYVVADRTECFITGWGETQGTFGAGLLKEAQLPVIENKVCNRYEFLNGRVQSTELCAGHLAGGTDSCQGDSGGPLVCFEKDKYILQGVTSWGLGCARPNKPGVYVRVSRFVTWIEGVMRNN
T5 sequence (P00747 97-580 partner limits assumed): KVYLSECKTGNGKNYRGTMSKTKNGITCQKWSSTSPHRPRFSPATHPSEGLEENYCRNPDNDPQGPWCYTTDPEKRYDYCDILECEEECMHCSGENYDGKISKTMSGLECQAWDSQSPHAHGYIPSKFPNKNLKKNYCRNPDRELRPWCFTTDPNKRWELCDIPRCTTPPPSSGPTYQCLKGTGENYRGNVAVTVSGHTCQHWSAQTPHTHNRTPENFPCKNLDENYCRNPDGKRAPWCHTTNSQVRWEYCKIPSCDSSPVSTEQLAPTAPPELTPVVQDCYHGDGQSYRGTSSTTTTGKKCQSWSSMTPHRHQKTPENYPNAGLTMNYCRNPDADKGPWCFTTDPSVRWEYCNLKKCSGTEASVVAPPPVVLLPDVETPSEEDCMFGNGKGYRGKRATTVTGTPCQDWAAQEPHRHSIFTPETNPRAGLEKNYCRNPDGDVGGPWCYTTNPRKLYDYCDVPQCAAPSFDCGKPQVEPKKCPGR
T9 sequence (P25779 123-337): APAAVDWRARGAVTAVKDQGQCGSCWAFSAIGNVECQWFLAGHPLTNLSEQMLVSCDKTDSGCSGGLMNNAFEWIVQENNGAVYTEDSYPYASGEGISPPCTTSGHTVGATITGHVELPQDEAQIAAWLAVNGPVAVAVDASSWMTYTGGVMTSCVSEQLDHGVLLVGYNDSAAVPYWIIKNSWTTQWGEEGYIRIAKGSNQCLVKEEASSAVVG

Take `CC(=O)N[C@@H](CC(C)C)C(=O)NCC(=O)N1CCC[C@H]1C(=O)N[C@@H](CCCCN)C(=O)Nc1ccc2c(C)cc(=O)oc2c1` [Ac-Leu-Gly-Pro-Lys-AMC] (Ac-LGPK-{AMC}): on thrombin [1], the Km worked out at 160 ± 25 µM and the kcat worked out at 2.3 ± 0.2 s⁻¹.
As to `CC(=O)N1CCC[C@H]1C(=O)N[C@@H](CCCNC(=N)N)C(=O)N[C@@H](CC(N)=O)C(=O)N[C@@H](CCCNC(=N)N)C(=O)Nc1ccc2c(CC(N)=O)cc(=O)oc2c1` [Ac-PRNR-ACC] (Ac-PRNR-{ACC}), the “activity relative to Ac-PRNK-ACC substrate” value at βII Tryptase [2] (setting [8]) and on βI Tryptase [3] (setting [8]) was 70-90% each time. Also, the Km on βII Tryptase [2] worked out at 18.6 ± 2.6 µM; on βI Tryptase [3] it was 16.5 ± 2.7 µM.
Regarding “7-Nle-Thr-Pro-Lys-AMC [reference compound]”, in [4], the “λmax, em” value came to 390 nm; the “λmax, ex” value worked out at 330 nm; the RFU/nM1 amounted to 3.3 RFU/nM; the RFU/nM2 came out at 2.2 RFU/nM.
For `CC(=O)N1CCC[C@H]1C(=O)N[C@@H](CCCNC(=N)N)C(=O)N[C@@H](CC(N)=O)C(=O)N[C@@H](CCCCN)C(=O)Nc1ccc2c(CC(N)=O)cc(=O)oc2c1` [Ac-PRNK-ACC] (Ac-PRNK-{ACC}), the Km at βII Tryptase [2] was 14.5 ± 1.9 µM; at βI Tryptase [3], 8.9 ± 0.9 µM.
Take `CCCC[C@H](NC(C)=O)C(=O)N[C@H](C(=O)N1CCC[C@H]1C(=O)N[C@@H](CCCCN)C(=O)Nc1ccc2c(C)cc(=O)oc2c1)[C@@H](C)O` [Ac-Nle-Thr-Pro-Lys-AMC] (Ac-[Nle]TPK-{AMC}): at thrombin [1], the Km worked out at 115 ± 10 µM and the turnover number (kcat) was found to be 31.0 ± 0.9 s⁻¹.
For the compound `CCCC[C@H](NC(C)=O)C(=O)N[C@H](C(=O)N1CCC[C@H]1C(=O)N[C@@H](CCCCN)C(=O)Nc1ccc2c(CC(N)=O)cc(=O)oc2c1)[C@@H](C)O` [Ac-Nle Thr-Pro-Lys--ACC] (Ac-[Nle]TPK-{ACC}), the Km at thrombin [1] worked out at 125 ± 13 µM.
As for Ac-PRNK-CH2Cl, the “association rate constant, kass” value at βI Tryptase [5] and on βII Tryptase [6] was 5000 ± 200 M⁻¹ s⁻¹ throughout. Moreover, the “Percent Inhibition” value in the series with Factor Xa was found to be 0; at tPA, 0; at Plasmin, 63; at Tryptase βII it was 95; at Tryptase βI, 95; on uPA, 34. Also, at thrombin [7], the “Percent Inhibition” value worked out at 0.
As for `NC(=O)Cc1cc(=O)oc2cc(N)ccc12` [7-Amino-4-Carbamoylmethyl-coumarin (ACC), 7-amino-4-carbamoylmethyl-coumarin], in series [4], the “λmax, em” value amounted to 450 nm; the “λmax, ex” value is reported as 350 nm; the RFU/nM1 is recorded as 5750 RFU/nM; the RFU/nM2 is on record as 4390 RFU/nM. In addition, the “fluorescence yield relative to the AMC coumarin” value in [4] (excitation 380 nm, emission 460 nm) was “approximately 2.8 fold”.
For the compound 7-Nle-Thr-Pro-Lys-ACC, in [4], the “λmax, em” value amounted to 400 nm; the “λmax, ex” value was found to be 325 nm; the RFU/nM1 turned out to be 6.4 RFU/nM; the RFU/nM2 was found to be 4.6 RFU/nM.
As to “Ac-Leu-Thr-Phe-Lys-ACC (Ac-LTFK-{ACC}; SMILES CC(=O)N[C@@H](CC(C)C)C(=O)N[C@H](C(=O)N[C@@H](Cc1ccccc1)C(=O)N[C@@H](CCCCN)C(=O)Nc1ccc2c(CC(N)=O)cc(=O)oc2c1)[C@@H](C)O)”, the cleavage products observed entry with cruzain was “cleavage between Thr-Phe”.
On to `CC(=O)N1CCC[C@H]1C(=O)N[C@@H](CCCNC(=N)N)C(=O)N[C@H](C(=O)N[C@@H](CCCCN)C(=O)Nc1ccc2c(CC(N)=O)cc(=O)oc2c1)[C@@H](C)O` [Ac-PRTK-ACC] (Ac-PRTK-{ACC}), for which the results for the Km on βII Tryptase [2] and at βI Tryptase [3] were 23.4 ± 2.3 µM and 14.7 ± 1.4 µM, respectively.
In the case of `CC(=O)N1CCC[C@H]1C(=O)N[C@@H](C)C(=O)N[C@@H](CC(N)=O)C(=O)N[C@@H](CCCCN)C(=O)Nc1ccc2c(CC(N)=O)cc(=O)oc2c1` [Ac-PANK-ACC] (Ac-PANK-{ACC}), the Km at βII Tryptase [2] worked out at 133 ± 15.6 µM; on βI Tryptase [3], 111 ± 9.8 µM.
`CC(=O)N[C@@H](CC(C)C)C(=O)NCC(=O)N1CCC[C@H]1C(=O)N[C@@H](CCCCN)C(=O)Nc1ccc2c(CC(N)=O)cc(=O)oc2c1` [Ac-Leu-Gly-Pro-Lys--ACC] (Ac-LGPK-{ACC}): the Km on thrombin [1] is 195 ± 30 µM.
